Source: the Kinase Knowledgebase extract (Sharma et al. 2016)
pIC50: −log10 of the molar value.

How the values were obtained:
EGFR (human) = EGFR (human) (UniProt P00533); assay: Enzyme Assay
[1] = biological target: EGFR (human), P00533 [L858R]; assay: Cell-Based Assay; settings: ba/f3
[2] = biological target: EGFR (human), P00533 [L858R]; assay: Enzyme Assay
[3] = biological target: EGFR (human), P00533 [L861Q]; assay: Enzyme Assay
EGFR (human), P00533 [L861Q], sequence (P00533 whole entry L861Q, looked up): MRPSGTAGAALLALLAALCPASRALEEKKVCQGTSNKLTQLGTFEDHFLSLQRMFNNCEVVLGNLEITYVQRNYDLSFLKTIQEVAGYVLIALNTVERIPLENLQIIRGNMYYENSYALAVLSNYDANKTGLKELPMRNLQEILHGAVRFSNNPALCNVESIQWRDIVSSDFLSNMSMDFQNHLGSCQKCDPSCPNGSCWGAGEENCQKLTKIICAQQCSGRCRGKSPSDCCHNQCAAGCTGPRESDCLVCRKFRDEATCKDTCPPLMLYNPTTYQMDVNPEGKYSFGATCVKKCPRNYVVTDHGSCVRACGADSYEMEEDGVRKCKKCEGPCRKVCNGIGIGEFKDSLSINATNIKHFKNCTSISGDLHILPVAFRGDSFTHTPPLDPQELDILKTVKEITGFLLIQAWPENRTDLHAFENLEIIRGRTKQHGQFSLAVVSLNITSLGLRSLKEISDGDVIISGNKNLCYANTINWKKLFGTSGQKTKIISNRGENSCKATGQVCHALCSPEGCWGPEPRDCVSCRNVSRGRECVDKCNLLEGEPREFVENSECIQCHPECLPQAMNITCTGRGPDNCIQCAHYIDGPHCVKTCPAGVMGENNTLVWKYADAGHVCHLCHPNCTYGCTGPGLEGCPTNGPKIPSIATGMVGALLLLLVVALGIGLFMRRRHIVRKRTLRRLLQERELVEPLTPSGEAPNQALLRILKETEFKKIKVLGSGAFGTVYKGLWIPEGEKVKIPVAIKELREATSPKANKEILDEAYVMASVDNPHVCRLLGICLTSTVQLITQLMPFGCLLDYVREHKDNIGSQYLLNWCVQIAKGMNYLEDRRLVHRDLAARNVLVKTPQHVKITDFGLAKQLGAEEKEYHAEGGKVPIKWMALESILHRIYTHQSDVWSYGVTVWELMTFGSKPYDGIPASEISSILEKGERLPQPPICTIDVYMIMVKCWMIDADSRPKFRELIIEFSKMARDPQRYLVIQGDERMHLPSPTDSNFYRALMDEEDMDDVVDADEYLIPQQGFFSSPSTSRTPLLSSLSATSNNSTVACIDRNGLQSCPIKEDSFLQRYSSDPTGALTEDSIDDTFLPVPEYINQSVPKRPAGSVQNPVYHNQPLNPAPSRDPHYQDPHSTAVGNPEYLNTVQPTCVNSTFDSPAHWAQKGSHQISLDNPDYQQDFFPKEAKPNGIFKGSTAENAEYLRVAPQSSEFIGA

EGFR (human), sequence (P00533 whole entry, looked up): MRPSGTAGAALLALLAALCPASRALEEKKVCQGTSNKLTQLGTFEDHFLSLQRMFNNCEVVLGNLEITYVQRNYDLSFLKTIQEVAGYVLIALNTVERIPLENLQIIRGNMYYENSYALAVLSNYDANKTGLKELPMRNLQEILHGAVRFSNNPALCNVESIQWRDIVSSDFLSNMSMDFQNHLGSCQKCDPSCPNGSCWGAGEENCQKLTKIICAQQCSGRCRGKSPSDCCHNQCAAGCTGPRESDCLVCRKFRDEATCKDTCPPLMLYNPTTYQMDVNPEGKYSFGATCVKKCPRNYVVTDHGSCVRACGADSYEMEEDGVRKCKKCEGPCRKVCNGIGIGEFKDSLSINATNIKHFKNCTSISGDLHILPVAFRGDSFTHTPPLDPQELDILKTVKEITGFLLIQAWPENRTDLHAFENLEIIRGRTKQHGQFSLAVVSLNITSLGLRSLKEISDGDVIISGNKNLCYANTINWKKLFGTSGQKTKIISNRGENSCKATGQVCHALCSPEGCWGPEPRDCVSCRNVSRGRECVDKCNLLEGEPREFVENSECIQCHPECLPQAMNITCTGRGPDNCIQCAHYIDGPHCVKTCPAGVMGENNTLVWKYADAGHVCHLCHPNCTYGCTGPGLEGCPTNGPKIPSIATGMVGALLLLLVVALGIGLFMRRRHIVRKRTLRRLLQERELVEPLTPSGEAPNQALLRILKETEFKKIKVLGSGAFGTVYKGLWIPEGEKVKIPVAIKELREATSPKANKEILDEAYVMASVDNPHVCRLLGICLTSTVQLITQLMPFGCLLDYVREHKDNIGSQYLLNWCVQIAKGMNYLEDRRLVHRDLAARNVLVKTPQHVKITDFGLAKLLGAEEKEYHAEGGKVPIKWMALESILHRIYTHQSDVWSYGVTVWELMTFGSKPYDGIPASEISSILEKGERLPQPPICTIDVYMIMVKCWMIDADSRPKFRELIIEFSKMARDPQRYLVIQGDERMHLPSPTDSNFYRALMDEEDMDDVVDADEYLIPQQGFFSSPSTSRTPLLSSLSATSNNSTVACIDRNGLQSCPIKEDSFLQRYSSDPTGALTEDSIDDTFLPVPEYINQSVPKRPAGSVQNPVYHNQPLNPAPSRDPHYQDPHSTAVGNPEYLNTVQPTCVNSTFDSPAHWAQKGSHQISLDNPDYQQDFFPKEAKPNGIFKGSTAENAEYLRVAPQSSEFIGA
EGFR (human), P00533 [L858R], sequence (P00533 whole entry L858R, looked up): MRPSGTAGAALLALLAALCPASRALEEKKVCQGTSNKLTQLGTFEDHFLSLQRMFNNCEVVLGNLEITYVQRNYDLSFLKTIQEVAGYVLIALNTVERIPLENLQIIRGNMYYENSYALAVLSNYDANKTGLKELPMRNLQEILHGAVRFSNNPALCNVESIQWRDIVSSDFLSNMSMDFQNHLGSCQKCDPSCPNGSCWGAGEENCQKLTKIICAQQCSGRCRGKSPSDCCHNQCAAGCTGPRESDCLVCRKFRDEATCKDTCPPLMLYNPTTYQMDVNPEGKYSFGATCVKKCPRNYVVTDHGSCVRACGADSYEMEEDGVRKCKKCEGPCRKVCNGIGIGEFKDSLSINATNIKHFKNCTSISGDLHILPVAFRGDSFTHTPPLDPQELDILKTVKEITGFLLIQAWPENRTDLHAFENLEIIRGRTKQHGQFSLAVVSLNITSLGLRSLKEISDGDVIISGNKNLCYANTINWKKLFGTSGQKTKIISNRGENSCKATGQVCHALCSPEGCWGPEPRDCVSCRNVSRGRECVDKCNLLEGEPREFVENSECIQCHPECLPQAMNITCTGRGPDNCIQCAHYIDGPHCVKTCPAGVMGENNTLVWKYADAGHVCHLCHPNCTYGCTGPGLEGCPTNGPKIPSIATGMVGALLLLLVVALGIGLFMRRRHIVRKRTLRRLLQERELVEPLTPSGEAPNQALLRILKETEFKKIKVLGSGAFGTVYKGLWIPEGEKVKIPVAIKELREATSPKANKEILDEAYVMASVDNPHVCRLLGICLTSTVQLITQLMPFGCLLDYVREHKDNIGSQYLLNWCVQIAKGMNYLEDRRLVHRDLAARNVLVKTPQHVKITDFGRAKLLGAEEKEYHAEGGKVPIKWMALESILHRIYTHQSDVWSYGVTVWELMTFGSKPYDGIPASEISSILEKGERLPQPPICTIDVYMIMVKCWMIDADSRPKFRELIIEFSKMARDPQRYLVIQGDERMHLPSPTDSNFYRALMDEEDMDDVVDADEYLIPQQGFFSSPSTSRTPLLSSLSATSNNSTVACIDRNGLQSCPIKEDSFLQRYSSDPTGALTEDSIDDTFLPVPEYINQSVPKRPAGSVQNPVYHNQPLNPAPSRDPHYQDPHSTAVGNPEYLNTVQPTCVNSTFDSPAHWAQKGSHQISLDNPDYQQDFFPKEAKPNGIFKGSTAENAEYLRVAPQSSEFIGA

COc1ccc(C=O)cc1-c1cc2c(N[C@H](C)c3ccccc3)ncnc2s1
pIC50 (EGFR (human)): 8.59

COc1cccc(OC)c1-c1cc2c(N[C@H](CO)c3ccccc3)ncnc2s1
pIC50 (EGFR (human)): 9.10

COc1cc(CO)ccc1-c1cc2c(N[C@H](C)c3ccccc3)ncnc2[nH]1
pIC50 [1]: 7.00
pIC50 (EGFR (human)): 9.70
pIC50 [2]: 9.40
pIC50 [3]: 9.70

C[C@@H](Nc1ncnc2sc(-c3cccc(CO)c3)cc12)c1ccccc1
pIC50 (EGFR (human)): 8.04

COc1cc(CO)ccc1-c1cc2c(Nc3ccccc3)ncnc2s1
pIC50 (EGFR (human)): 8.51

OCc1ccc(-c2cc3c(N[C@H](CO)c4ccccc4)ncnc3[nH]2)cc1
pIC50 [1]: 6.76
pIC50 (EGFR (human)): 9.40
pIC50 [2]: 9.40
pIC50 [3]: 9.70

COc1cc(CO)ccc1-c1cc2c(N[C@H](CO)c3ccc(F)cc3)ncnc2[nH]1
pIC50 [1]: 7.08
pIC50 (EGFR (human)): 9.52
pIC50 [2]: 9.22
pIC50 [3]: 9.30

OC[C@@H](Nc1ncnc2sc(-c3ccccc3O)cc12)c1ccccc1
pIC50 (EGFR (human)): 8.47

COc1cccc(OC)c1-c1cc2c(N[C@H](C)c3ccccc3)ncnc2s1
pIC50 (EGFR (human)): 8.96

C[C@@H](Nc1ncnc2sc(-c3cccc(O)c3)cc12)c1ccccc1
pIC50 (EGFR (human)): 7.35

COc1ccccc1-c1cc2c(N[C@H](C)c3ccccc3)ncnc2s1
pIC50 (EGFR (human)): 8.17
pIC50 [2]: 8.11
pIC50 [3]: 8.04

COc1cc(F)ccc1-c1cc2c(N[C@H](C)c3ccccc3)ncnc2s1
pIC50 (EGFR (human)): 8.20

COc1ccccc1-c1cc2c(N[C@H](CO)c3ccccc3)ncnc2[nH]1
pIC50 [1]: 6.87
pIC50 (EGFR (human)): 9.30
pIC50 [2]: 10.00
pIC50 [3]: 9.70

COc1cc(C=O)ccc1-c1cc2c(N[C@H](CO)c3ccccc3)ncnc2s1
pIC50 (EGFR (human)): 9.10
pIC50 [2]: 9.05
pIC50 [3]: 9.10

COc1cc(C=O)ccc1-c1cc2c(Nc3ccccc3)ncnc2s1
pIC50 (EGFR (human)): 7.70

COc1cc(F)ccc1-c1cc2c(N[C@H](CO)c3ccccc3)ncnc2[nH]1
pIC50 (EGFR (human)): 9.00

Oc1ccccc1-c1cc2c(NCc3ccccc3)ncnc2s1
pIC50 (EGFR (human)): 7.54

OC[C@@H](Nc1ncnc2oc(-c3ccc(O)cc3)cc12)c1ccccc1
pIC50 (EGFR (human)): 8.70

Cc1cccc(-c2cc3c(N[C@H](C)c4ccccc4)ncnc3s2)c1
pIC50 (EGFR (human)): 7.11

OCc1ccc(-c2cc3c(N[C@H](CO)c4ccccc4)ncnc3s2)cc1
pIC50 (EGFR (human)): 8.66
pIC50 [2]: 8.64
pIC50 [3]: 8.80

Cc1ccc(-c2cc3c(N[C@H](C)c4ccccc4)ncnc3s2)cc1
pIC50 (EGFR (human)): 6.98

COc1cc(CO)ccc1-c1cc2c(N[C@H](CO)c3ccccc3)ncnc2s1
pIC50 (EGFR (human)): 9.52
pIC50 [2]: 9.52
pIC50 [3]: 9.52

COc1ccc(-c2cc3c(N[C@H](C)c4ccccc4)ncnc3s2)c(OC)c1
pIC50 (EGFR (human)): 8.30

CC[C@@H](Nc1ncnc2sc(-c3ccccc3O)cc12)c1ccccc1
pIC50 (EGFR (human)): 7.48

COc1ccc(-c2cc3c(N[C@H](CO)c4ccccc4)ncnc3o2)cc1
pIC50 (EGFR (human)): 8.57

COc1cc(C=O)ccc1-c1cc2c(N[C@H](CO)c3ccc(F)cc3)ncnc2[nH]1
pIC50 (EGFR (human)): 9.22

COc1ccccc1-c1cc2c(N[C@H](CO)c3ccccc3)ncnc2s1
pIC50 (EGFR (human)): 9.05
pIC50 [2]: 8.89
pIC50 [3]: 9.00

COc1cc(CO)ccc1-c1cc2c(NCc3ccccc3)ncnc2[nH]1
pIC50 (EGFR (human)): 9.30
pIC50 [2]: 9.10
pIC50 [3]: 9.40

COc1cc(C=O)ccc1-c1cc2c(N[C@H](C)c3ccccc3)ncnc2[nH]1
pIC50 (EGFR (human)): 9.30

COc1cccc(-c2cc3c(N[C@H](C)c4ccccc4)ncnc3s2)c1
pIC50 (EGFR (human)): 7.43

COc1cc(C=O)ccc1-c1cc2c(N[C@H](C)c3ccccc3)ncnc2s1
pIC50 (EGFR (human)): 8.52
pIC50 [2]: 8.37
pIC50 [3]: 8.41

COc1cc(C=O)ccc1-c1cc2c(NCc3ccccc3)ncnc2[nH]1
pIC50 (EGFR (human)): 8.68

C[C@@H](Nc1ncnc2sc(-c3ccccc3O)cc12)c1ccccc1
pIC50 (EGFR (human)): 7.46

COc1ccc(CO)cc1-c1cc2c(N[C@H](C)c3ccccc3)ncnc2s1
pIC50 (EGFR (human)): 8.33

COc1ccc(-c2cc3c(N[C@H](C)c4ccccc4)ncnc3s2)cc1
pIC50 (EGFR (human)): 7.27

COC[C@@H](Nc1ncnc2[nH]c(-c3ccccc3)cc12)c1ccccc1
pIC50 (EGFR (human)): 8.74

C[C@@H](Nc1ncnc2sc(-c3ccc(O)cc3)cc12)c1ccccc1
pIC50 (EGFR (human)): 7.08

COc1cc(C=O)ccc1-c1cc2c(N[C@H](CO)c3ccccc3)ncnc2[nH]1
pIC50 (EGFR (human)): 9.52

COc1cc(CO)ccc1-c1cc2c(N[C@H](C)c3ccccc3)ncnc2s1
pIC50 (EGFR (human)): 9.22
pIC50 [2]: 9.15
pIC50 [3]: 9.22

C[C@@H](Nc1ncnc2sc(-c3ccc(CO)cc3)cc12)c1ccccc1
pIC50 (EGFR (human)): 8.18

COc1cc(C=O)ccc1-c1cc2c(NCc3ccccc3)ncnc2s1
pIC50 (EGFR (human)): 8.20

Cc1ccccc1-c1cc2c(N[C@H](C)c3ccccc3)ncnc2s1
pIC50 (EGFR (human)): 6.82

OC[C@@H](Nc1ncnc2[nH]c(-c3ccccc3)cc12)c1ccccc1
pIC50 [1]: 6.90
pIC50 (EGFR (human)): 9.15
pIC50 [2]: 8.89
pIC50 [3]: 9.00

COc1cc(CO)ccc1-c1cc2c(NCc3ccccc3)ncnc2s1
pIC50 (EGFR (human)): 8.32

C[C@@H](Nc1ncnc2sc(-c3ccccc3)cc12)c1ccccc1
pIC50 (EGFR (human)): 7.23

COc1c(CO)cccc1-c1cc2c(N[C@H](C)c3ccccc3)ncnc2s1
pIC50 (EGFR (human)): 8.80

C[C@@H](Nc1ncnc2sc(-c3ccccc3CO)cc12)c1ccccc1
pIC50 (EGFR (human)): 7.42
